According to patent US20240423915A1, “LIPIDS FOR USE IN LIPID NANOPARTICLES” (Acuitas Therapeutics, Inc., priority 2023, published 2024):

Tested on: human IgG in mouse serum
Assay: Immunoglobulin G (IgG) mRNA in vivo evaluation using lipid nanoparticle compositions (human IgG ELISA of mouse serum)
Set-up: species or system CD-1/ICR mice
Settings: LNP with cationic lipid/DSPC/cholesterol/PEG lipid, tail vein injection, mouse serum 24 hours after administration; for Serum IgG (μg/mL) @ 0.3 mg/kg: IgG mRNA 0.3 mg mRNA/kg; for Serum IgG (μg/mL) @ 1.0 mg/kg: IgG mRNA 1.0 mg mRNA/kg
Method: A lipid of Formula (I), DSPC, cholesterol and PEG-lipid of Formula (II) are solubilized in ethanol at a molar ratio of 50:10:38.5:1.5 or 47.5:10:40.7:1.8. Lipid nanoparticles (LNP) are prepared at a total lipid to mRNA weight ratio of approximately 10:1 to 40:1. Briefly, the mRNA is diluted to 0.2 mg/mL in 10 to 50 mM citrate buffer, pH 4 to 6 or 10 to 25 mM acetate buffer, pH 4 to 6. Syringe pumps are used to mix the ethanolic lipid solution with the mRNA aqueous solution at a ratio of about 1:5 to 1:3 (vol/vol) with total flow rates above 15 mL/min. The ethanol is then removed, and the external buffer replaced with PBS by dialysis. Finally, the lipid nanoparticles are filtered through a 0.2 μm pore sterile filter.
Studies are performed in 6-8-week-old CD-1/ICR mice (Charles River or Inotiv) according to guidelines established by an institutional animal care committee (ACC) and the Canadian Council on Animal Care (CCAC). Varying doses of mRNA-lipid nanoparticle are systemically administered by tail vein injection and animals euthanized at a specific time point (e.g., 24 hours) post-administration. The whole blood is collected, and the serum subsequentially separated by centrifuging the tubes of the whole blood at 2000×g for 10 minutes at 4° C. and stored at −80° C. until use for analysis.
For immunoglobulin G (IgG) ELISA (Life Diagnostics Human IgG ELISA kit), the serum samples are diluted at 100 to 20,000 folds with 1× diluent solution. 100 μL of diluted serum is dispensed into anti-human IgG coated 96-well plate in duplicate alongside human IgG standards and incubated in a plate shaker at 150 rpm at 25° C. for 45 minutes. The wells are washed 5 times with 1× wash solution using a plate washer (400 μL/well). 100 μL of HRP conjugate is added into each well and incubated in a plate shaker at the same condition above. The wells are washed 5 times again with 1× wash solution using a plate washer (400 μL/well). 100 μL of TMB reagent is added into each well and incubated in a plate shaker at the same condition above. The reaction is stopped by adding 100 μL of Stop solution to each well. The absorbance is read at 450 nm (A450) with a microplate reader. The amount of human IgG in mouse serum is determined by plotting A450 values for the assay standard against human IgG concentration.
Representative compounds of the disclosure shown in Table 2 were formulated using the following molar ratio: 50% cationic lipid/10% distearoylphosphatidylcholine (DSPC)/38.5% Cholesterol/1.5% PEG lipid 2-[2-(ω-methoxy(polyethyleneglycol2000)ethoxy]-N,N-ditetradecylacetamide) or 47.5% cationic lipid/10% DSPC/40.7% Cholesterol/1.8% PEG lipid. Relative activity was determined by measuring the amount of human IgG in mouse serum as described in Example 1. The activity was compared at a dose of 1.0 or 0.3 mg mRNA/kg and expressed as ng luciferase/g liver measured 4 hours after administration, as described in Example 1 or as μg IgG/mL serum measured 24 hours after administration, as described in Example 2. Compound numbers in Table 2 refer to the compound numbers of Table 1.

| SMILES | Serum IgG (μg/mL) @ 0.3 mg/kg [µg/mL] | Serum IgG (μg/mL) @ 1.0 mg/kg [µg/mL] |
| --- | --- | --- |
| CCCCCCCCCCCCN(CCCCCCCCCCCC)C(=O)CCCCCCCN(CCCCCO)CCCCCCCOC(=O)OC(CCCCCCCC)CCCCCCCC [Compound I-22, 7-((8-(didodecylamino)-8-oxooctyl)(5-hydroxypentyl)amino)heptyl heptadecan-9-yl carbonate] | 22.8 ± 11.0 | – |
| CCCCCCCCCCC(CCCCCCCCCC)OC(=O)OCCCCCN(CCCCCO)CCCCCCCC(=O)N(CCCCCCCCCC)CCCCCCCCCC [Compound I-15, 5-((8-(didecylamino)-8-oxooctyl)(5-hydroxypentyl)amino)pentyl henicosan-11-yl carbonate] | 7.8 ± 4.0 | – |
| CCCCCCCCCCN(CCCCCCCCCC)C(=O)CCCCCCCN(CCCCCO)CCCCCCCCOC(=O)OCC(CCCCCC)CCCCCCCC (stereo not shown) [Compound I-19, 8-((8-(didecylamino)-8-oxooctyl)(5-hydroxypentyl)amino)octyl (2-hexyldecyl) carbonate] | 25.1 ± 4.2 | 184.5 ± 40.2 |
| CCCCCCCCC(CCCCCCCC)OC(=O)OCCCCCCCN(CCCCCO)CCCCCCCC(=O)N(CCCCCCCC)CCCCCCCC [Compound I-23, 7-((8-(dioctylamino)-8-oxooctyl)(5-hydroxypentyl)amino)heptyl heptadecan-9-yl carbonate] | 34.8 ± 12.3 | – |
| CCCCCCCCCCN(CCCCCCCCCC)C(=O)CCCCCCCCC(CCCCCCCCC(=O)OCC(CCCC)CCCCCC)N(CCCCCCCC)C(=O)CCCN1CCCC1 (stereo not shown) [Compound I-24, 2-butyloctyl 19-(didecylamino)-10-(n-octyl-4-(pyrrolidin-1-yl)butanamido)-19-oxononadecanoate] | 25.1 ± 7.7 | – |
| CCCCCCCCCCN(CCCCCCCCCC)C(=O)CCCCCCCCC(CCCCCCCCC(=O)OCC(CCCC)CCCCCC)N(CCCCCCCCCC)C(=O)CCN(C)C (stereo not shown) [Compound I-8, 2-butyloctyl 10-(N-decyl-3-(dimethylamino)propanamido)-19-(didecylamino)-19-oxononadecanoate] | 21.7 ± 4.3 | 232.4 ± 42.5 |
| CCCCCCCCCCN(CCCCCCCCCC)C(=O)CCCCCCCN(CCCCCO)CCCCCOC(=O)OC(CCCC)CCCC [Compound I-16, 5-((8-(didecylamino)-8-oxooctyl)(5-hydroxypentyl)amino)pentyl nonan-5-yl carbonate] | 18.5 ± 2.7 | 75.4 ± 53.7 |
| CCCCCCCCCCN(CCCCCCCCCC)C(=O)CCCCCCCN(CCCCCO)CCCCCCCCOC(=O)OC(CCCCCCC)CCCCCCC [Compound I-3, 8-((8-(didecylamino)-8-oxooctyl)(5-hydroxypentyl)amino)octylpentadecan-8-yl carbonate] | 30.1 ± 2.1 | 173.3 ± 9.3 |
| CCCCCCCCCCN(CCCCCCCCCC)C(=O)CCCCCCCCC(CCCCCCCCC(=O)OCC(CCCC)CCCCCC)N(CCCCCCCCCC)C(=O)CCCN(C)C (stereo not shown) [Compound I-25, 2-butyloctyl 10-(n-decyl-4-(dimethylamino)butanamido)-19-(didecylamino)-19-oxononadecanoate] | 9.3 ± 1.7 | 68.3 ± 13.4 |
| CCCCCCCCCCN(CCCCCCCCCC)C(=O)CCCCCCCN(C)CCCCCCCCOC(=O)OC(CCCCCCC)CCCCCCC [Compound I-4, 8-((8-(didecylamino)-8-oxooctyl)(methyl)amino)octylpentadecan-8-yl carbonate] | 8.5 ± 2.0 | 73.6 ± 15.6 |
| CCCCCCCCC(CCCCCCCC)OC(=O)OCCCCCCCN(CCCCCO)CCCCCCCCCC(=O)N(CCCCCCCC)CCCCCCCC [Compound I-20, 7-((10-(dioctylamino)-10-oxodecyl)(5-hydroxypentyl)amino)heptyl heptadecan-9-yl carbonate] | 51.4 ± 12.8 | – |
| CCCCCCCCCCN(CCCCCCCCCC)C(=O)CCCCCCCN(CCCCCO)CCCCCCCCOC(=O)OCC(CCCC)CCCCCC (stereo not shown) [Compound I-12, 2-butyloctyl (8-((8-(didecylamino)-8-oxooctyl)(5-hydroxypentyl)amino)octyl) carbonate] | 19.7 ± 6.8 | – |
| CCCCCCCCCCN(CCCCCCCCCC)C(=O)CCCCCCCN(CCCCCO)CCCCCCCCCOC(=O)OC(CCCCCC)CCCCCC [Compound I-17, 9-((8-(didecylamino)-8-oxooctyl)(5-hydroxypentyl)amino)nonyl tridecan-7-yl carbonate] | 20.1 ± 6.7 | – |
| CCCCCCCCCCN(CCCCCCCCCC)C(=O)CCCCCCCN(CCCCCO)CCCCCCCOC(=O)OC(CCCCCCCC)CCCCCCCC [Compound I-18, 7-((8-(didecylamino)-8-oxooctyl)(5-hydroxypentyl)amino)heptyl heptadecan-9-yl carbonate] | 51.5 ± 9.5 | 290.2 ± 50.5 |
| CCCCCCCCCCC(CCCCCCCCCC)OC(=O)OCCCCCCCCCN(CCCCCO)CCCCCCCC(=O)N(CCCCCCCCCC)CCCCCCCCCC [Compound I-13, 9-((8-(didecylamino)-8-oxooctyl)(5-hydroxypentyl)amino)nonyl henicosan-11-yl carbonate] | 18.2 ± 3.3 | 143.2 ± 23.9 |
| CCCCCCCCCCOC(=O)OCCCCCCCCN(C)CCCCCCCC(=O)N(CCCCCCCCCC)CCCCCCCCCC [Compound I-2, decyl (8-((8-(didecylamino)-8-oxooctyl)(methyl)amino)octyl) carbonate] | 22.3 ± 7.8 | 134.9 ± 26.6 |
| CCCCCCCCCCN(CCCCCCCCCC)C(=O)CCCCCCCN(CCCCCO)CCCCCCCCCOC(=O)OC(CCCC)CCCC [Compound I-14, 9-((8-(didecylamino)-8-oxooctyl)(5-hydroxypentyl)amino)nonyl nonan-5-yl carbonate] | 37.0 ± 18.5 | 280.8 ± 86.6 |
| CCCCCCCCCCOC(=O)OCCCCCCCCN(CCCCCO)CCCCCCCC(=O)N(CCCCCCCCCC)CCCCCCCCCC [Compound I-1, decyl (8-((8-(didecylamino)-8-oxooctyl)(5-hydroxypentyl)amino)octyl) carbonate] | 15.6 ± 5.1 | 121.5 ± 33.1 |
| CCCCCCCCCCCCN(CCCCCCCCCCCC)C(=O)CCCCCN(CCCCCO)CCCCCCCOC(=O)OC(CCCCCCCC)CCCCCCCC [Compound I-21, 7-((6-(didodecylamino)-6-oxohexyl)(5-hydroxypentyl)amino)heptyl heptadecan-9-yl carbonate] | 9.7 ± 3.3 | – |
| CCCCCCCCCCN(CCCCCCCCCC)C(=O)CCCCCCCN(CCCCCO)CCCCCCCCOC(=O)OCC(CC)CCCC (stereo not shown) [Compound I-11, 8-((8-(didecylamino)-8-oxooctyl)(5-hydroxypentyl)amino)octyl (2-ethylhexyl) carbonate] | 39.6 ± 6.3 | – |
